In assay [1] the test system is HCV replicon genotype 1b. In words: microbe, parasite or virus in culture. It is filed as cell-based. The conditions noted are these: genotype 1b replicon cells, incubated 96 hours, NS3/4A ELISA readout. Background: Replicon systems follow genome replication, usually without infectious particles.
For assay [2], the system named is HCV replicon genotype 1a. The experiment in a line: microbe, parasite or virus in culture. It counts as cell-based. The following applies: genotype 1a replicon cells, incubated 96 hours, NS3/4A ELISA readout.

Usually IC50 stands for the point on the concentration scale where inhibition reaches its midpoint. A lower IC50 goes with greater potency in that assay. As to `CNC(=O)c1c(-c2ccc(F)cc2)oc2cc(N(C)S(C)(=O)=O)c(-c3ccc4c(n3)-c3c(F)c5ccccc5n3CO4)cc12` [Compound 58, 5-(12-fluoro-6H-pyrido[2′,3′:5,6][1,3]oxazino[3,4-a]indol-2-yl)-2-(4-fluorophenyl)-N-methyl-6-(N-methylmethylsulfonamido)benzofuran-3-carboxamide], the IC50 in assay [1] (Hepatitis C virus, 96 h) is 8.7 nM; in assay [2] (Hepatitis C virus, 96 h), 13 nM.

Take `CNC(=O)c1c(-c2ccc(F)cc2)oc2cc(N(C)S(C)(=O)=O)c(-c3ccc4c(n3)-c3c(Cl)c5c(F)cccc5n3CO4)cc12` [Compound 56]: the IC50 in assay [1] (Hepatitis C virus, 96 h) is 12 nM; in assay [2] (Hepatitis C virus, 96 h), 13 nM.

Take `CNC(=O)c1c(-c2ccc(F)cc2)oc2cc(N(C)S(C)(=O)=O)c(-c3cc4c(cn3)OCn3c-4cc4cc(F)ccc43)cc12` [Compound 35]: the IC50 in assay [1] (Hepatitis C virus, 96 h) amounted to 4.7 nM; in assay [2] (Hepatitis C virus, 96 h), 2.5 nM.

Consider `CNC(=O)c1c(-c2ccc(F)cc2)oc2cc(N(C)S(C)(=O)=O)c(-c3ccc4c(n3)-c3[nH]c5ncccc5c3CO4)cc12` [Compound 52, 5-(6,11-dihydropyrido[2″,3″:5′,6′]pyrano[3′,4′:4,5]pyrrolo[2,3-b]pyridin-2-yl)-2-(4-fluorophenyl)-N-methyl-6-[methyl(methylsulfonyl)amino]-1-benzofuran-3-carboxamide], for which the IC50 came out at 2.7 nM in assay [1] (Hepatitis C virus, 96 h) and 1.7 nM in assay [2] (Hepatitis C virus, 96 h).

For `CNC(=O)c1c(-c2ccc(F)cc2)oc2cc(N(C)S(C)(=O)=O)c(-c3cc4c(cn3)OCn3c-4nc4cccnc43)cc12` [Compound 138], the IC50 in assay [1] (Hepatitis C virus, 96 h) came out at 19 nM; in assay [2] (Hepatitis C virus, 96 h) it was 62 nM.

In the case of `CNC(=O)c1c(-c2ccc(F)cc2)oc2cc(CN)c(-c3ccc4c(n3)-c3cc5c(F)cccc5n3CO4)cc12` [Compound 181], the IC50 in assay [1] (Hepatitis C virus, 96 h) turned out to be 14 nM; in assay [2] (Hepatitis C virus, 96 h), 13 nM.

On to `CNC(=O)c1c(-c2ccc(F)cc2)oc2cc(N(C)S(C)(=O)=O)c(-c3ccc4c(n3)-c3nc5cccc(F)c5n3CO4)cc12` [Compound 140], for which the IC50 in assay [1] (Hepatitis C virus, 96 h) turned out to be 5.9 nM; in assay [2] (Hepatitis C virus, 96 h), 7.9 nM.

As to `CNC(=O)c1c(-c2ccc(F)cc2)oc2cc(N(C)S(C)(=O)=O)c(-c3ccc4c(n3)-c3cc5c(CN)cccc5n3CO4)cc12` [Compound 68], the IC50 in assay [1] (Hepatitis C virus, 96 h) was determined as 19 nM; in assay [2] (Hepatitis C virus, 96 h), 60 nM.

For `CNC(=O)c1c(-c2ccc(F)cc2)oc2cc(N(C)S(C)(=O)=O)c(-c3ccc4c(n3)-c3cc5ccc(F)cc5n3CO4)cc12` [Compound 17], the IC50 in assay [1] (Hepatitis C virus, 96 h) turned out to be 3.9 nM; in assay [2] (Hepatitis C virus, 96 h), 4 nM.

As to `CNC(=O)c1c(-c2ccc(F)cc2)oc2cc(N(C)S(C)(=O)=O)c(-c3ccc4c(n3)-c3cc5c(CO)cccc5n3CO4)cc12` [Compound 72, 2-(4-fluorophenyl)-5-(11-(hydroxymethyl)-6H-pyrido[2′,3′:5,6][1,3]oxazino[3,4-a]indol-2-yl)-N-methyl-6-(N-methylmethylsulfonamido)benzofuran-3-carboxamide], the IC50 in assay [1] (Hepatitis C virus, 96 h) stood at 9 nM; in assay [2] (Hepatitis C virus, 96 h), 52 nM.

As to `CNC(=O)c1c(-c2ccc(F)cc2)oc2cc(N(C)S(C)(=O)=O)c(-c3ccc4c(n3)-c3cc5c(F)cccc5n3C(COC)O4)cc12` (centres unmarked) [Compound 96], the IC50 was determined as 5.1 nM in assay [1] and 4.1 nM in assay [2].

As to `CNC(=O)c1c(-c2ccc(F)cc2)oc2cc(C(N)=O)c(-c3ccc4c(n3)-c3cc5c(F)cccc5n3CO4)cc12` [Compound 183, 5-(11-fluoro-6H-pyrido[2′,3′:5,6][1,3]oxazino[3,4-a]indol-2-yl)-2-(4-fluorophenyl)-N3-methylbenzofuran-3,6-dicarboxamide], the IC50 in assay [1] (Hepatitis C virus, 96 h) came out at 7.1 nM; in assay [2] (Hepatitis C virus, 96 h), 2 nM.

As for `CC(C)NC(=O)c1c(-c2ccc(F)cc2)oc2cc(N(C)S(C)(=O)=O)c(-c3ccc4c(n3)-c3cc5c(F)cccc5n3CO4)cc12` [Compound 158], the IC50 was 24 nM in assay [1] (Hepatitis C virus, 96 h) and 42 nM in assay [2] (Hepatitis C virus, 96 h).

Regarding `CNC(=O)c1c(-c2ccc(F)cc2)oc2cc(N(C)S(C)(=O)=O)c(-c3ccc4c(c3)-c3nc5ccccn5c3CO4)cc12` [Compound 142, 5-(6H-chromeno[4′,3′:4,5]imidazo[1,2-a]pyridin-2-yl)-2-(4-fluorophenyl)-N-methyl-6-(N-methylmethylsulfonamido)benzofuran-3-carboxamide], the IC50 is 4 nM in assay [1] (Hepatitis C virus, 96 h) and 4.1 nM in assay [2] (Hepatitis C virus, 96 h).

Regarding `CNC(=O)c1c(-c2ccc(F)cc2)oc2cc(N(CCO)S(C)(=O)=O)c(-c3ccc4c(n3)-c3cc5c(F)cccc5n3CO4)cc12` [Compound 201], the IC50 in assay [1] (Hepatitis C virus, 96 h) is 5.5 nM; in assay [2] (Hepatitis C virus, 96 h) it was 2.6 nM.

In the case of `CNC(=O)c1c(-c2ccc(F)cc2)oc2cc(N(C)S(C)(=O)=O)c(-c3ccc4c(c3)-c3nc5cccc(F)c5n3CO4)cc12` [Compound 134], the IC50 in assay [1] (Hepatitis C virus, 96 h) was determined as 2.9 nM; in assay [2] (Hepatitis C virus, 96 h), 4 nM.

As to `CNC(=O)c1c(-c2ccc(F)cc2)oc2cc(N(C)S(C)(=O)=O)c(-c3ccc4c(n3)-c3cc5c(F)cccc5n3C(CF)O4)cc12` (centres unmarked) [Compound 98, 5-(11-fluoro-6-(fluoromethyl)-6H-pyrido[2′,3′:5,6][1,3]oxazino[3,4-a]indol-2-yl)-2-(4-fluorophenyl)-N-methyl-6-(N-methylmethylsulfonamido)benzofuran-3-carboxamide], the IC50 in assay [1] (Hepatitis C virus, 96 h) is 6.3 nM; in assay [2] (Hepatitis C virus, 96 h) it was 3.9 nM.

On to `CNC(=O)c1c(-c2ccc(F)cc2)oc2cc(N(CCF)S(C)(=O)=O)c(-c3ncc4c(n3)-c3cc5c(F)cccc5n3CO4)cc12` [Compound 193], for which the IC50 worked out at 1.7 nM in assay [1] (Hepatitis C virus, 96 h) and 1.3 nM in assay [2] (Hepatitis C virus, 96 h).

As to `CNC(=O)c1c(-c2ccc(F)cc2)oc2cc(N(C)S(C)(=O)=O)c(-c3cc4c(cn3)OC(CO)n3c-4cc4c(F)cccc43)cc12` (centres unmarked) [Compound 89], the IC50 in assay [1] came out at 0.9 nM; in assay [2], 1.1 nM.

In the case of `CNC(=O)c1c(-c2ccc(F)cc2)oc2cc(N(C)S(C)(=O)=O)c(-c3ccc4c(n3)-c3cc5c(F)cccc5n3C(CNS(C)(=O)=O)O4)cc12` (centres unmarked) [Compound 128, 5-(11-fluoro-6-(methylsulfonamidomethyl)-6H-pyrido[2′,3′:5,6][1,3]oxazino[3,4-a]indol-2-yl)-2-(4-fluorophenyl)-N-methyl-6-(N-methylmethylsulfonamido)benzofuran-3-carboxamide], the IC50 in assay [1] (Hepatitis C virus, 96 h) worked out at 0.9 nM; in assay [2] (Hepatitis C virus, 96 h), 2.6 nM.

Regarding `Cc1n[nH]c(-c2c(-c3ccc(F)cc3)oc3cc(N(C)S(C)(=O)=O)c(-c4ccc5c(n4)-c4cc6c(F)cccc6n4CO5)cc23)n1` [Compound 161, N-(5-(11-fluoro-6H-pyrido[2′,3′:5,6][1,3]oxazino[3,4-a]indol-2-yl)-2-(4-fluorophenyl)-3-(3-methyl-1H-1,2,4-triazol-5-yl)benzofuran-6-yl)-N-methylmethanesulfonamide], the IC50 in assay [1] (Hepatitis C virus, 96 h) amounted to 54 nM; in assay [2] (Hepatitis C virus, 96 h), 32 nM.

Regarding `CNC(=O)c1c(-c2ccc(F)cc2)oc2cc(N3CCC3=O)c(-c3ccc4c(n3)-c3cc5c(F)cccc5n3CO4)cc12` [Compound 176], the IC50 worked out at 8.8 nM in assay [1] (Hepatitis C virus, 96 h) and 7.9 nM in assay [2] (Hepatitis C virus, 96 h).

With `CNC(=O)c1c(-c2ccc(F)cc2)oc2cc(N(C)S(C)(=O)=O)c(-c3ccc4c(n3)-c3[nH]c5cccc(F)c5c3C(c3nccs3)O4)cc12` (centres unmarked) [Compound 67], the IC50 in assay [1] (Hepatitis C virus, 96 h) came to 10 nM; in assay [2] (Hepatitis C virus, 96 h) it was 9.2 nM.

In the case of `CNC(=O)c1c(-c2ccc(F)cc2)oc2cc(N(C)S(C)(=O)=O)c(-c3ccc4c(n3)-c3cc5c(F)cccc5n3CO4)cc12` [Compound 2, 5-(11-fluoro-6H-pyrido[2′,3′:5,6][1,3]oxazino[3,4-a]indol-2-yl)-2-(4-fluorophenyl)-N-methyl-6-(N-methylmethylsulfonamido)benzofuran-3-carboxamide], the IC50 in assay [1] (Hepatitis C virus, 96 h) amounted to 2.7 nM; in assay [2] (Hepatitis C virus, 96 h), 1.6 nM.

`CNC(=O)c1c(-c2ccc(F)cc2)oc2cc(N3CCCC3=O)c(-c3ccc4c(c3)-c3cc5c(F)cccc5n3CO4)cc12` [Compound 171, 5-(11-fluoro-6H-benzo[5,6][1,3]oxazino[3,4-a]indol-2-yl)-2-(4-fluorophenyl)-N-methyl-6-(2-oxopyrrolidin-1-yl)benzofuran-3-carboxamide]: the IC50 came out at 4.7 nM in assay [1] (Hepatitis C virus, 96 h) and 12 nM in assay [2] (Hepatitis C virus, 96 h).

For `CNC(=O)c1c(-c2ccc(F)cc2)oc2cc(N(C)S(C)(=O)=O)c(-c3ncc4c(n3)-c3cc5ccccc5n3CO4)cc12` [Compound 4], the IC50 is 1.3 nM in assay [1] (Hepatitis C virus, 96 h) and 0.7 nM in assay [2] (Hepatitis C virus, 96 h).

Regarding `CNC(=O)c1c(-c2ccc(F)cc2)oc2cc(N(C)S(C)(=O)=O)c(-c3ccc4c(c3)-c3cc5ccccc5n3CO4)cc12` [Compound 10], the IC50 was determined as 2.4 nM in assay [1] (Hepatitis C virus, 96 h) and 1.6 nM in assay [2] (Hepatitis C virus, 96 h).

With `CCOC(=O)C(O)c1c2n(c3cccc(F)c13)COc1ccc(-c3cc4c(C(=O)NC)c(-c5ccc(F)cc5)oc4cc3N(C)S(C)(=O)=O)nc1-2` (centres unmarked) [Compound 206, ethyl 2-(11-fluoro-2-(2-(4-fluorophenyl)-3-(methylcarbamoyl)-6-(N-methylmethylsulfonamido)benzofuran-5-yl)-6H-pyrido[2′,3′:5,6][1,3]oxazino[3,4-a]indol-12-yl)-2-hydroxyacetate], the IC50 was 23 nM in assay [1] (Hepatitis C virus, 96 h) and 15 nM in assay [2] (Hepatitis C virus, 96 h).

`CNC(=O)c1c(-c2ccc(F)cc2)oc2cc(N(C)S(C)(=O)=O)c(-c3ccc4c(c3)-c3cc5ccccc5n3CC(NCCCN(C)C)CO4)cc12` (centres unmarked) [Compound 81]: the IC50 was determined as 22 nM in assay [1] (Hepatitis C virus, 96 h) and 36 nM in assay [2] (Hepatitis C virus, 96 h).

`CNC(=O)c1c(-c2ccc(F)cc2)oc2cc(N3CCOC3=O)c(-c3ccc4c(n3)-c3cc5c(F)cccc5n3CO4)cc12` [Compound 172, 5-(11-fluoro-6H-pyrido[2′,3′:5,6][1,3]oxazino[3,4-a]indol-2-yl)-2-(4-fluorophenyl)-N-methyl-6-(2-oxooxazolidin-3-yl)benzofuran-3-carboxamide]: the IC50 in assay [1] (Hepatitis C virus, 96 h) worked out at 2.1 nM; in assay [2] (Hepatitis C virus, 96 h), 2.2 nM.

With `CNC(=O)c1c(-c2ccc(F)cc2)oc2ccc(-c3ccc4c(n3)-c3cc5c(F)cccc5n3CO4)cc12` [Compound 162, 5-(11-fluoro-6H-pyrido[2′,3′:5,6][1,3]oxazino[3,4-a]indol-2-yl)-2-(4-fluorophenyl)-N-methylbenzofuran-3-carboxamide], the IC50 turned out to be 18 nM in assay [1] (Hepatitis C virus, 96 h) and 29 nM in assay [2] (Hepatitis C virus, 96 h).

(Values after patent publication US9265773B2, “Tetracyclic heterocycle compounds and methods of use thereof for the treatment of viral diseases” (priority 2011, dated 2016).)
